Laboratory results taken from ChEMBL document CHEMBL1145362, “Structure-activity relationships of SERMs optimized for uterine antagonism and ovarian safety” (Bioorg Med Chem Lett, 2007).

Experiments:
Ishikawa [1] = experiment: Inhibition of estrogen stimulation in human Ishikawa cells by alkaline phosphatase quantitation; type: functional, cell-based; conditions: for IC50: Homo sapiens, Ishikawa
Estrogen receptor beta = Estrogen receptor beta (Homo sapiens, UniProt Q92731); experiment: Displacement of [3H]estradiol from human recombinant ERbeta
Ishikawa [2] = experiment: Increase in estrogen stimulation in human Ishikawa cells by alkaline phosphatase quantitation at 1 uM relative to control; type: functional
Rattus norvegicus [3] = experiment: Inhibition of estradiol-induced increase in uterine wet weight in orally dosed Sprague-Dawley rat after 3 days; type: functional; conditions: po, 72 h
[4] = Drug level in Sprague-Dawley rat brain at 10 mg/kg, po after 6 hrs; type: ADME, organism-based; design: dose 10 mg/kg, route oral; conditions: read-out: Drug uptake
[5] = Drug level in Sprague-Dawley rat plasma at 10 mg/kg, po after 6 hrs; type: ADME, organism-based; design: dose 10 mg/kg, route oral; conditions: read-out: Drug uptake
[6] = Ratio of log of drug level in brain to blood in Sprague-Dawley rat; type: ADME, tissue-based; conditions: read-out: logBB (converted)
Rattus norvegicus [7] = experiment: Inhibition of estrogen stimulation in Sprague-Dawley rat at 10 mg/kg; type: functional
Estrogen receptor = target: T1, Estrogen receptor (Homo sapiens, UniProt P03372)
T1 sequence (P03372 whole entry): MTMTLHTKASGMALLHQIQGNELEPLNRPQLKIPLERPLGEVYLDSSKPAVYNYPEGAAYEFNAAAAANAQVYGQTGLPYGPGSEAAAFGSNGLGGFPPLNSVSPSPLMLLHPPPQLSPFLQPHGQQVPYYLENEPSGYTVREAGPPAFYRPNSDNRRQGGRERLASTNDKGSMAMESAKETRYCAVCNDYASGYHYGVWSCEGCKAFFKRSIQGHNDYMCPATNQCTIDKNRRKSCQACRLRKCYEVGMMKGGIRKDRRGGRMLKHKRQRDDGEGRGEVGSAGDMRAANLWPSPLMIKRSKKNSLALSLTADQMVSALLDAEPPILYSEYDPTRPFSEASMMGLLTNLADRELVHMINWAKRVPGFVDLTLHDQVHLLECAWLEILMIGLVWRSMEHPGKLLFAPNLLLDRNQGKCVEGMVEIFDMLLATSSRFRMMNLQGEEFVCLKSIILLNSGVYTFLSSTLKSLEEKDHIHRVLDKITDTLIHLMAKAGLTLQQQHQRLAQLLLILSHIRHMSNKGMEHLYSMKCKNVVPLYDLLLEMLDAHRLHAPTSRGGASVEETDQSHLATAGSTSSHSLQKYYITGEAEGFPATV
Description: Displacement of [3H]estradiol from human recombinant ERalpha

Rattus norvegicus [8] = experiment: Increase in uterine wet weight in Sprague-Dawley rat at 0.1 mg/kg; type: functional

Estrogen receptor beta, sequence (Q92731 whole entry): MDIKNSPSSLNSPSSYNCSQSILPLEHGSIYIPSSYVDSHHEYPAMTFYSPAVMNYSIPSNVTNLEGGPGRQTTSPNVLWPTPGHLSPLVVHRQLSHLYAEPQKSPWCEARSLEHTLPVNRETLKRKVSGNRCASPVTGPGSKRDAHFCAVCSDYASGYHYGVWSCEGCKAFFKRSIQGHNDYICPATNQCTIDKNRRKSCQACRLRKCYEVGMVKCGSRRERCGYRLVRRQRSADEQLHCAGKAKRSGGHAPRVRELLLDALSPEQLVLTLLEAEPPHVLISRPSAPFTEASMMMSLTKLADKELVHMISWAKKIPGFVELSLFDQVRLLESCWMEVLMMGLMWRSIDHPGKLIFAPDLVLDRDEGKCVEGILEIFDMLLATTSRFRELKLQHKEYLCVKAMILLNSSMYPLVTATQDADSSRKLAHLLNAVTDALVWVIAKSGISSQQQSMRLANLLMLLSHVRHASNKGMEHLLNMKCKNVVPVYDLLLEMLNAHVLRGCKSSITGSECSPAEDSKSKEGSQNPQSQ

SMILES	Efficacy (Ishikawa [1]) [%]	IC50 (Ishikawa [1]) [nM]	Ki (Estrogen receptor beta) [nM]	Efficacy (Ishikawa [2]) [%]	ED50 (Rattus norvegicus [3]) [mg/kg]	concentration at 6 h [4] [ng/g]	concentration at 6 h [5] [ng/mL]	Kp [6]	ED50 (Rattus norvegicus [7]) [mg/kg]	inhibition in vivo at 10 mg/kg (Rattus norvegicus [7]) [%]	Ki (Estrogen receptor) [nM]	Fold change (Rattus norvegicus [8])
CN(C)S(=O)(=O)c1ccc(-c2ccc3cc(O)ccc3c2Oc2ccc(OCCN3CCCCC3)cc2)cc1	99	2.8	1.69	27	0.44	46	108	0.427	< 1	83	0.4	
CS(=O)(=O)c1ccc(-c2ccc3cc(O)ccc3c2Oc2ccc(OCCN3CCCCC3)cc2)cc1						103	660	0.155				
CCS(=O)(=O)c1ccc(-c2ccc3cc(O)ccc3c2Oc2ccc(OCCN3CCCCC3)cc2)cc1	95	6.1	4.19	19	0.14	43	357	0.12	< 1	83	1.22	
CC(C)S(=O)(=O)c1ccc(-c2ccc3cc(O)ccc3c2Oc2ccc(OCCN3CCCCC3)cc2)cc1	96	4.9	2.17	11	0.37				< 1	83	0.73	
CC(C)c1ccc(-c2sc3cc(O)ccc3c2Oc2ccc(OCCN3CCCCC3)cc2)cc1	95	16.2	0.63	29	0.16				< 1	83	0.091	
N#Cc1cccc(-c2ccc3cc(O)ccc3c2Oc2ccc(OCCN3CCCCC3)cc2)c1	94	18.5	0.35	23	0.37	529	360		< 1	83	0.24	
Oc1ccc(-c2ccc3cc(O)ccc3c2Oc2ccc(OCCN3CCCCC3)cc2)cc1	96	4.7	0.48	13	0.3	47	277	0.17	< 1	83	0.32	
CN(C)C(=O)c1ccc(-c2ccc3cc(O)ccc3c2Oc2ccc(OCCN3CCCCC3)cc2)cc1	95	6.7	1.16	25	0.19				< 1	83	0.57	
Oc1ccc2c(Oc3ccc(OCCN4CCCCC4)cc3)c(-c3ccc(F)cc3)ccc2c1	93	3.2	0.28	21	0.015	2690	151	17.8	< 1	83	0.24	
Oc1ccc2c(Oc3ccc(OCCN4CCCCC4)cc3)c(-c3ccc(F)c(F)c3)ccc2c1	96	3.9	0.29	13	0.058	3490	418	8.32	< 1	83	0.2	
O=S1(=O)CC=C(c2ccc3cc(O)ccc3c2Oc2ccc(OCCN3CCCCC3)cc2)CC1	98	7.2	2.1	19	0.25				< 1	83	1.03	
CS(=O)(=O)c1ccc(-c2sc3cc(O)ccc3c2Oc2ccc(OCCN3CCCCC3)cc2)cc1	97	22.2	13.6	24	0.62				< 1	83	0.63	
Oc1cccc(-c2ccc3cc(O)ccc3c2Oc2ccc(OCCN3CCCCC3)cc2)c1	100	2.1	0.36	26	0.13	57	211	0.269	< 1	83	0.21	
Oc1ccc2c(Oc3ccc(OCCN4CCCCC4)cc3)c(-c3cccc(F)c3)ccc2c1	97	4.8	0.16	15	0.23	730	137	5.37	< 1	83	0.18	
CS(=O)(=O)C1CC=C(c2ccc3cc(O)ccc3c2Oc2ccc(OCCN3CCCCC3)cc2)CC1 (centres undefined)	99	8	2.69	24	0.26				< 1	83	1.09	
CCS(=O)(=O)c1ccc(-c2sc3cc(O)ccc3c2Oc2ccc(OCCN3CCCCC3)cc2)cc1	95	14.5	15.7	16	0.56				< 1	83		
O=S1(=O)CCC(c2ccc3cc(O)ccc3c2Oc2ccc(OCCN3CCCCC3)cc2)CC1	93	15.7	4.11	27	0.34				< 1	83	1.89	
C#CC1(O)CC[C@H]2[C@@H]3CCc4cc(O)ccc4[C@H]3CC[C@@]21C (single isomer, unassigned) [ETHINYL ESTRADIOL]												3
